Measured values as given in patent USRE50528E1, “Compounds and compositions for modulating EGFR mutant kinase activities” (Yuhan Corporation, priority 2014, dated 2025).

Legend:
KDR = molecular target: T1, KDR (Homo sapiens, UniProt P35968); assay: Kinase inhibition assay, KDR; format: biochemical; conditions: biochemical potency;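 also: purified full-length human KDR, 30 min preincubation with compound, then 1 h reaction with ATP and Ulight-Jak1 peptide substrate, phosphorylation read by Lance Europium antibody detection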
T1 construct: Purified human, full-length SYK, KDR; purchased Carna Biosciences

[1] = molecular target: T2, EGFR mutant Del19 (E746-A750) (Homo sapiens, UniProt P00533, DEL746-750); assay: Kinase inhibition assay, EGFR del E746-A750; format: biochemical; conditions: read-out: EGFR mutants Del19 (E746-A750);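 also: truncated human EGFR mutant kinase, two-hour preincubation with compound, then one-hour reaction with ATP and ULight-PolyGT peptide, LANCE Europium-antibody phosphorylation readout, IC50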
T2 construct: truncated human JAK3, EGFR mutants such as del E746-A750; purchased Carna Biosciences

EGFR mutant L858R = molecular target: T3, EGFR mutant L858R (Homo sapiens, UniProt P00533, L858R); assay: Kinase inhibition assay, EGFR L858R; format: biochemical; conditions: read-out: EGFR mutants L858R;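 also: truncated human EGFR L858R kinase with compound preincubation, ULight-PolyGT peptide phosphorylation read by Europium-antibody Lance detection, IC50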
T3 construct: truncated human JAK3, EGFR mutants such as del E746-A750; purchased Carna Biosciences

JAK3 = molecular target: T4, JAK3 (Homo sapiens, UniProt P52333); assay: Kinase inhibition assay, JAK3; conditions: biochemical potency;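 also: IC50 against purified truncated human JAK3 preincubated with compound, then reacted with ATP and ULight-Jak1 peptide, phosphorylation read by Europium-labeled antibody LANCE detection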
T4 construct: EGFR and JAK3 (JH1domain-catalytic) kinases, and mutant forms thereof; purchased Carna Biosciences

EGFR mutant Del19/T790M = molecular target: T5, EGFR mutant Del19/T790M (Homo sapiens, UniProt P00533, DEL746-750/T790M); assay: Kinase inhibition assay, EGFR del E746-A750/T790M; format: biochemical; conditions: read-out: EGFR mutants Del19/T790M
T5 construct: truncated human JAK3, EGFR mutants such as del E746-A750; purchased Carna Biosciences

SYK = molecular target: T6, SYK (Homo sapiens, UniProt P43405); assay: Kinase inhibition assay, SYK; format: biochemical; conditions: biochemical potency;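 also: purified full-length human SYK pre-incubated 30 min with compound, then ULight-TK peptide phosphorylation for 1 h, detected with Europium-labeled antibody in Lance buffer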
T6 construct: Purified human, full-length SYK, KDR; purchased Carna Biosciences

EGFR mutant L858R/T790M = molecular target: T7, EGFR mutant L858R/T790M (Homo sapiens, UniProt P00533, L858R/T790M); assay: Kinase inhibition assay, EGFR L858R/T790M; format: biochemical; conditions: read-out: EGFR mutants L858R/T790M;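 also: truncated human enzyme preincubated two hours with compound, then one hour with one millimolar ATP and ULight-PolyGT peptide, Europium-labeled antibody detection, IC50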
T7 construct: truncated human JAK3, EGFR mutants such as del E746-A750; purchased Carna Biosciences

[2] = tested on: H1975 (EGFR L858R/T790M mutant); assay: Cell viability assay, H1975; format: cell-based; conditions: for IC50: Homo sapiens, NCI-H1975, cellular potency, 72-hour incubation, ATPLite, read-out: EGFR Mutants H1975; for Selectivity over wildtype, Wildtype vs mutant H2073/H1975 (fold): cellular potency ratio;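 as to all read-outs here: NSCLC cells whose survival relies on EGFR L858R/T790M, exposed 72 h to serially diluted compound, ATP-based viability readout, with the H2073 line (wildtype EGFR dependent) as wildtype comparator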
H2073 (EGFR wildtype) = assay: Cell viability assay, H2073; format: cell-based; conditions: NCI-H2073; cellular potency; 72-hour incubation; ATPLite;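 also: NSCLC cell line whose survival relies on wildtype EGFR, treated with serially diluted compound, cytotoxic effect judged from remaining cell viability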
EGFR mutant T790M = molecular target: T8, EGFR mutant T790M (Homo sapiens, UniProt P00533, T790M); assay: Kinase inhibition assay, EGFR mutant T790M; conditions: biochemical potency;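 also: truncated human EGFR mutant enzyme preincubated two hours with compound, then ATP plus ULight-PolyGT peptide for one hour, Europium-labeled antibody LANCE detection, IC50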
T8 construct: truncated human JAK3, EGFR mutants such as del E746-A750; purchased Carna Biosciences

[3] = tested on: PC9 (EGFR del E746-A750 mutant); assay: Cell viability assay, PC9; format: cell-based; conditions: for Selectivity over wildtype, Wildtype vs mutant H2073/PC9 (fold): cellular potency ratio; for IC50: cellular potency, 72-hour incubation, ATPLite, read-out: EGFR Mutants PC9;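 as to all read-outs here: NSCLC PC9 cells, whose viability relies on EGFR del E746-A750, exposed to serially diluted compound for 72 h at 37 °C, ATPLite read-out, IC50, H2073 as EGFR wildtype line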

T5 sequence (P00533 with tags, fused parts or gaps DEL746-750/T790M limits assumed): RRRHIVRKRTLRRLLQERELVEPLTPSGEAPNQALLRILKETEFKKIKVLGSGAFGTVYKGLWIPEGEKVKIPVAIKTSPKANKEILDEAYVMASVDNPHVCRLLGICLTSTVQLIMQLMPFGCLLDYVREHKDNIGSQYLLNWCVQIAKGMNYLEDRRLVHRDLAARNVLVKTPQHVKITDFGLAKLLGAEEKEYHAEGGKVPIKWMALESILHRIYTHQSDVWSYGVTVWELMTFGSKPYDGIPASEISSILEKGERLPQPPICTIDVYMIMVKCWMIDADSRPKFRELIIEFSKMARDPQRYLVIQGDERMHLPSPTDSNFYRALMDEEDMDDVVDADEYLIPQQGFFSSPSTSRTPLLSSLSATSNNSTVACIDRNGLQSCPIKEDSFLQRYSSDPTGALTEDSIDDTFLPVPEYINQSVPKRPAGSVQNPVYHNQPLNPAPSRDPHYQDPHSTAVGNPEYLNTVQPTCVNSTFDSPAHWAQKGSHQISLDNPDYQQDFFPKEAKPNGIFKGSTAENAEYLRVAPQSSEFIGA
T1 sequence (P35968 20-1356): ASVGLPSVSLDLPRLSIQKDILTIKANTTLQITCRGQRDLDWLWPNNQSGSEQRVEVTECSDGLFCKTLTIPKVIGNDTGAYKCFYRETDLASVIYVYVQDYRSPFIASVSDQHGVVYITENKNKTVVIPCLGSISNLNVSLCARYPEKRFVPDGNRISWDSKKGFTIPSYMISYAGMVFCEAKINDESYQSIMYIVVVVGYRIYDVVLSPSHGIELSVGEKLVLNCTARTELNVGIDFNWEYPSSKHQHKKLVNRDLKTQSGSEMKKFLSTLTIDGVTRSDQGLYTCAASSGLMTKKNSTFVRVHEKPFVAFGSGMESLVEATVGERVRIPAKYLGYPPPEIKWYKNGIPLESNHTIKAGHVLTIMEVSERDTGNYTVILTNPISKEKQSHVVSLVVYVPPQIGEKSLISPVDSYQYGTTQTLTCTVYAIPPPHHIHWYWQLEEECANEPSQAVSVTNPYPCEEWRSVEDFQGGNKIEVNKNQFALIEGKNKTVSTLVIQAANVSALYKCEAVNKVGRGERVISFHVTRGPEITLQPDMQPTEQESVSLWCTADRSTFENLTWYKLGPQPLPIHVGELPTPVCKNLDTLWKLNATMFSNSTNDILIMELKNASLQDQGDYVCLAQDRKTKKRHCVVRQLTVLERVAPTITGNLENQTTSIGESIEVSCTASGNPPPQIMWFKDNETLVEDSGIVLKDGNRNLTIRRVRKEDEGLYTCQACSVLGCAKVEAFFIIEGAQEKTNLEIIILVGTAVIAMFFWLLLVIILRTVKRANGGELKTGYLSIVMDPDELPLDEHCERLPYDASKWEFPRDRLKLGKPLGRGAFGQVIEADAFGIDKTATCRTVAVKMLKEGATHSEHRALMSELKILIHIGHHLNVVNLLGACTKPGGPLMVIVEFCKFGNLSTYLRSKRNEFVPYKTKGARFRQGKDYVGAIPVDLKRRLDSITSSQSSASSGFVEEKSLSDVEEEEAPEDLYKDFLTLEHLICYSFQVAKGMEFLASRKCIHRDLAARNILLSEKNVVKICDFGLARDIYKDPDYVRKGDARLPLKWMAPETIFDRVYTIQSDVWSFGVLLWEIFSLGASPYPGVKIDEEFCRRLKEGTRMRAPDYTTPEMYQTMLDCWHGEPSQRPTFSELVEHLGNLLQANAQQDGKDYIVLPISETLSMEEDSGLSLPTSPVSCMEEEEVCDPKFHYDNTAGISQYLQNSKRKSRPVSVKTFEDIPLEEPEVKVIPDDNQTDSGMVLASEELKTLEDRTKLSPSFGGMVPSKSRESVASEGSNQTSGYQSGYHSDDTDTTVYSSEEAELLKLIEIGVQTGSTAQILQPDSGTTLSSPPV
T8 sequence (P00533 669-1210 T790M limits assumed): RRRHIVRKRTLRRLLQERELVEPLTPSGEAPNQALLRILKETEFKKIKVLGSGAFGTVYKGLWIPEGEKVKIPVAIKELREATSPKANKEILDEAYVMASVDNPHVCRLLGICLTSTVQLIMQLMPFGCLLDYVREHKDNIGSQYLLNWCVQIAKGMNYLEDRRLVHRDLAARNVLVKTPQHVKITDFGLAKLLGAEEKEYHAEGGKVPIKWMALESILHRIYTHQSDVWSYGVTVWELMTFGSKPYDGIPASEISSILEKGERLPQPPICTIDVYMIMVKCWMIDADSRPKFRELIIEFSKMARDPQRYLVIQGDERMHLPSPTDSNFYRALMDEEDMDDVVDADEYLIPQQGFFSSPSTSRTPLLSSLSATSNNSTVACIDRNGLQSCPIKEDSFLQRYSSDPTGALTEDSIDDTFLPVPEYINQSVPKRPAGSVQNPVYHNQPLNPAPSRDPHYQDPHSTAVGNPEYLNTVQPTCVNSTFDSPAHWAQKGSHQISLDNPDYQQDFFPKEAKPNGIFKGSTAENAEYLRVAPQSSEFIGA
T3 sequence (P00533 669-1210 L858R limits assumed): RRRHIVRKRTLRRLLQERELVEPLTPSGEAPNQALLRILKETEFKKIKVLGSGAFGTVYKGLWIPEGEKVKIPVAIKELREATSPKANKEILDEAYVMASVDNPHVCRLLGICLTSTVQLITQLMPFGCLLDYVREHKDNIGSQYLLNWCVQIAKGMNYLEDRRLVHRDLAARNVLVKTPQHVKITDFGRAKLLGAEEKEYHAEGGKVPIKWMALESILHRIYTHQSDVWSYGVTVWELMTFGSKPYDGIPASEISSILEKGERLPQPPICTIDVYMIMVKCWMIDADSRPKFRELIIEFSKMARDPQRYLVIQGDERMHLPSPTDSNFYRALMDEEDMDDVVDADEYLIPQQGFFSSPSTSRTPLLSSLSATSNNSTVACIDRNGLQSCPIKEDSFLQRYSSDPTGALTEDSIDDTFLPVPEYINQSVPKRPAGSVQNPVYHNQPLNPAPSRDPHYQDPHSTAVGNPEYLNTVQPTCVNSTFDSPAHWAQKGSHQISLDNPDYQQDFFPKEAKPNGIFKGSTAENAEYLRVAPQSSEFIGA
T7 sequence (P00533 669-1210 T790M/L858R limits assumed): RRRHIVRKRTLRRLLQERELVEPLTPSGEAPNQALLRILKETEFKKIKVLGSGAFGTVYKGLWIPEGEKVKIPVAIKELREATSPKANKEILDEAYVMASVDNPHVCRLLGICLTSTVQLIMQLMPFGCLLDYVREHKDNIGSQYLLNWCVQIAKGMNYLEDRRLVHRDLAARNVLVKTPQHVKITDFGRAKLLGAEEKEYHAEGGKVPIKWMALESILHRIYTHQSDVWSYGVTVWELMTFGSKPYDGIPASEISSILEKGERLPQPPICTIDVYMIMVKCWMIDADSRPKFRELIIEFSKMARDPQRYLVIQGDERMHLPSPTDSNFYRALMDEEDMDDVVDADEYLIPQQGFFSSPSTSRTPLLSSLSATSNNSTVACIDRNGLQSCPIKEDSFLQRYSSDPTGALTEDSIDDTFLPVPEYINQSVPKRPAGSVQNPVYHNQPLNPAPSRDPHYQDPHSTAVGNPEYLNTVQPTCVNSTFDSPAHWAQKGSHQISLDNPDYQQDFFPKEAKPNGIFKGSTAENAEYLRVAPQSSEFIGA
T2 sequence (P00533 with tags, fused parts or gaps DEL746-750 limits assumed): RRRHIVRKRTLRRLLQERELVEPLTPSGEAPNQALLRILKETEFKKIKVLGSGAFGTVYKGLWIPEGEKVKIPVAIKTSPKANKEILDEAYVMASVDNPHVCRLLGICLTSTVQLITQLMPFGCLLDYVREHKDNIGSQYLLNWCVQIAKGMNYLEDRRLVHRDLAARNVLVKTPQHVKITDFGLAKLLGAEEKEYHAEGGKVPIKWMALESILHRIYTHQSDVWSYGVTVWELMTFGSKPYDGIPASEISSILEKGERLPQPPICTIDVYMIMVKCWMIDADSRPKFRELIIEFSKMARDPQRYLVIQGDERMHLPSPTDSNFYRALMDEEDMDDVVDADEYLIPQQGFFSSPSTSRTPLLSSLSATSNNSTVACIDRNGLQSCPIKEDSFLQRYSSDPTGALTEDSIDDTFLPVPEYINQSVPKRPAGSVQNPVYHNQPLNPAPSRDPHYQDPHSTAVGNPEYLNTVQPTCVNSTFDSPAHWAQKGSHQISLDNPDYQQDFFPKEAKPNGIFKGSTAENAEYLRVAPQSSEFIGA
T4 sequence (P52333 822-1111 limits assumed): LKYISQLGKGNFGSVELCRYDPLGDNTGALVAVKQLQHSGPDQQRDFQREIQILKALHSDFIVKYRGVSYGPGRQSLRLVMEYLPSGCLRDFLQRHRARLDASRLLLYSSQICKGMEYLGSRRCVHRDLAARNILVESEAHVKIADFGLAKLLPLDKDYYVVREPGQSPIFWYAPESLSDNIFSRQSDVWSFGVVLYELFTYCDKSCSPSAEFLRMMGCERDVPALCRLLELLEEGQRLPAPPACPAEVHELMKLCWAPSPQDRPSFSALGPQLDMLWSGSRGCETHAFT

Row | IC50 (KDR) [nM] | IC50 [1] [nM] | IC50 (EGFR mutant L858R) [nM] | IC50 (JAK3) [nM] | IC50 (EGFR mutant Del19/T790M) [nM] | IC50 (SYK) [nM] | IC50 (EGFR mutant L858R/T790M) [nM] | IC50 [2] [nM] | IC50 (H2073 (EGFR wildtype)) [nM] | IC50 (EGFR mutant T790M) [nM] | IC50 [3] [nM] | Compound | Selectivity over wildtype, Wildtype vs mutant H2073/H1975 (fold) [2] | Selectivity over wildtype, Wildtype vs mutant H2073/PC9 (fold) [3]
1 | > 1000 | < 20 | < 20 | < 20 | < 20 | 201 to 1000 | < 20 | 20 to 200 | > 1000 | < 20 | 20 to 200 | C=CC(=O)Nc1cc(Nc2ncc(C)c(-n3cc(CN4CCC4)c(C)n3)n2)c(OC)cc1N1CCOCC1 [Compound 76, N-(5-(4-(4-(azetidin-1-ylmethyl)-3-methyl-1H-pyrazol-1-yl)-5-methylpyrimidin-2-ylamino)-4-methoxy-2-morpholinophenyl)acrylamide] | 101-200 fold | 101-200 fold
2 | 201 to 1000 | < 20 | < 20 | < 20 | < 20 | 20 to 200 | < 20 | 20 to 200 | > 1000 | < 20 | < 20 | C=CC(=O)Nc1cc(Nc2ncc(C)c(-n3cc(CN4CC(O)C4)cn3)n2)c(OC)cc1N1CCOCC1 [Compound 19, N-(5-(4-(4-((3-hydroxyazetidin-1-yl)methyl)-1H-pyrazol-1-yl)-5-methylpyrimidin-2-ylamino)-4-methoxy-2-morpholinophenyl)acrylamide] | 20-100 fold | 100-200 fold
3 | > 1000 | < 20 | 20 to 200 | – | < 20 | > 1000 | < 20 | 20 to 200 | > 1000 | – | 20 to 200 | C=CC(=O)Nc1cc(Nc2nccc(-n3cc(CN4CCC4)c(-c4ccc(C)cc4)n3)n2)c(OC)cc1N1CCOCC1 [Compound 82, N-(5-(4-(4-(azetidin-1-ylmethyl)-3-p-tolyl-1H-pyrazol-1-yl)pyrimidin-2-ylamino)-4-methoxy-2-morpholinophenyl)acrylamide] | 101-200 fold | 101-200 fold
4 | > 1000 | < 20 | < 20 | < 20 | < 20 | 20 to 200 | < 20 | 20 to 200 | > 1000 | < 20 | 20 to 200 | C=CC(=O)Nc1cc(Nc2ncc(C)c(-n3cc(CN(C)C)c(C)n3)n2)c(OC)cc1N1CCOCC1 [Compound 75, N-(5-(4-(4-((dimethylamino)methyl)-3-methyl-1H-pyrazol-1-yl)-5-methylpyrimidin-2-ylamino)-4-methoxy-2-morpholinophenyl)acrylamide] | 101-200 fold | 101-200 fold
5 | > 1000 | < 20 | 20 to 200 | 20 to 200 | < 20 | > 1000 | < 20 | – | – | 201 to 1000 | – | C=CC(=O)Nc1cc(Nc2nccc(-n3cc(CN4CCC4)c(C)n3)n2)c(OC)cc1-c1ccccc1 [Compound 65, N-(4-(4-(4-(azetidin-1-ylmethyl)-3-methyl-1H-pyrazol-1-yl)pyrimidin-2-ylamino)-5-methoxybiphenyl-2-yl)acrylamide] | – | –
6 | > 1000 | < 20 | < 20 | < 20 | < 20 | 20 to 200 | < 20 | < 20 | > 1000 | < 20 | < 20 | C=CC(=O)Nc1cc(Nc2ncc(C)c(-n3cc(CN(C)C)c(C(C)C)n3)n2)c(OC)cc1N1CCOCC1 [Compound 124, N-(5-(4-(4-((dimethylamino)methyl)-3-isopropyl-1H-pyrazol-1-yl)-5-methylpyrimidin-2-ylamino)-4-methoxy-2-morpholinophenyl)acrylamide] | >200 fold | >200 fold
7 | > 1000 | < 20 | 20 to 200 | < 20 | < 20 | > 1000 | < 20 | 201 to 1000 | > 1000 | < 20 | 20 to 200 | C=CC(=O)Nc1cc(Nc2ncc(Cl)c(-n3cc(CN4C[C@@H](O)[C@@H](O)C4)c(C)n3)n2)c(OC)cc1N1CCN(C)CC1 [Compound 54, N-(5-(5-chloro-4-(4-(((3R,4S)-3,4-dihydroxypyrrolidin-1-yl)methyl)-3-methyl-1H-pyrazol-1-yl)pyrimidin-2-ylamino)-4-methoxy-2-(4-methylpiperazin-1-yl)phenyl)acrylamide] | <20 fold | 20-100 fold
8 | > 1000 | < 20 | < 20 | < 20 | < 20 | 201 to 1000 | < 20 | – | – | < 20 | – | C=CC(=O)Nc1cc(Nc2nccc(-n3cc(CN(C)C)c(C)n3)n2)c(OC)cc1N1CCN(C)CC1 [Compound 47, N-(5-(4-(4-((dimethylamino)methyl)-3-methyl-1H-pyrazol-1-yl)pyrimidin-2-ylamino)-4-methoxy-2-(4-methylpiperazin-1-yl)phenyl)acrylamide] | – | –
9 | 201 to 1000 | < 20 | < 20 | < 20 | < 20 | 201 to 1000 | < 20 | – | – | < 20 | – | C=CC(=O)Nc1cc(Nc2nccc(-n3cc(CN4CCC4)c(C)n3)n2)c(OC)cc1N1CCN(C)CC1 [Compound 17, N-(5-(4-(4-(azetidin-1-ylmethyl)-3-methyl-1H-pyrazol-1-yl)pyrimidin-2-ylamino)-4-methoxy-2-(4-methylpiperazin-1-yl)phenyl)acrylamide] | – | –
10 | > 1000 | < 20 | 20 to 200 | 20 to 200 | < 20 | 201 to 1000 | < 20 | – | – | < 20 | – | C=CC(=O)Nc1cc(Nc2nccc(-n3cc(CN4CCC4)cn3)n2)c(OC)cc1N1CCOCC1 [Compound 34, N-(5-(4-(4-(azetidin-1-ylmethyl)-1H-pyrazol-1-yl)pyrimidin-2-ylamino)-4-methoxy-2-morpholinophenyl)acrylamide] | – | –
11 | > 1000 | < 20 | < 20 | < 20 | < 20 | 201 to 1000 | < 20 | – | – | < 20 | – | C=CC(=O)Nc1cc(Nc2ncc(Cl)c(-n3cc(CN4CC(O)C4)c(C)n3)n2)c(OC)cc1N1CCOCC1 [Compound 49, N-(5-(5-chloro-4-(4-((3-hydroxyazetidin-1-yl)methyl)-3-methyl-1H-pyrazol-1-yl)pyrimidin-2-ylamino)-4-methoxy-2-morpholinophenyl)acrylamide] | – | –
12 | – | > 1000 | > 1000 | – | > 1000 | > 1000 | 201 to 1000 | > 1000 | > 1000 | > 1000 | > 1000 | Cc1cc(Nc2nccc(-n3cc(CN4CC(O)C4)c(C)n3)n2)cc(C)c1OCCO [Compound 149, 1-((1-(2-(4-(2-hydroxyethoxy)-3,5-dimethylphenylamino)pyrimidin-4-yl)-3-methyl-1H-pyrazol-4-yl)methyl)azetidin-3-ol, reference compound] | <20 fold | <20 fold
13 | > 1000 | < 20 | 20 to 200 | < 20 | < 20 | > 1000 | < 20 | – | – | < 20 | – | C=CC(=O)Nc1cc(Nc2ncc(C)c(-n3cc(CN4CCC4)cn3)n2)c(OC)cc1N1CCCOCC1 [Compound 40, N-(5-(4-(4-(azetidin-1-ylmethyl)-1H-pyrazol-1-yl)-5-methylpyrimidin-2-ylamino)-4-methoxy-2-(1,4-oxazepan-4-yl)phenyl)acrylamide] | – | –
14 | – | < 20 | < 20 | – | < 20 | 20 to 200 | < 20 | < 20 | 201 to 1000 | < 20 | < 20 | C=CC(=O)Nc1cc(Nc2nccc(-n3cc(CN4CCC4)c(-c4cccs4)n3)n2)c(OC)cc1N1CCOCC1 [Compound 118, N-(5-(4-(4-(azetidin-1-ylmethyl)-3-(thiophen-2-yl)-1H-pyrazol-1-yl)pyrimidin-2-ylamino)-4-methoxy-2-morpholinophenyl)acrylamide] | 20-200 fold | 20-200 fold
